Experimental data reported in patent US20020055462A1, “Use” (priority 1999, published 2002).
Entries after “also recorded” stand apart in the source; their conditions may differ. Values belong to the compound of their own block, whether it stands above or below them.

Experiments:
aromatase = experiment: Basal aromatase activity in intact monolayers of cultured breast tissue fibroblasts; type: cell-based, human; settings: for inhibition of basal aromatase activity (in words): stromal fibroblasts from normal or malignant breast tissue; for inhibition of basal aromatase activity: fibroblasts derived from reduction mammoplasty tissue, 24 h pre-treatment then 48 h with dexamethasone 100 nmol/l
Procedure: (§1) Inhibition of basal and TNFα-stimulated aromatase activity by paclitaxel (Pax) in breast tissue fibroblasts. Paclitaxel was added to cells which were cultured for 24 h in 2% stripped foetal calf serum. TNFα was added, in the presence of dexamethasone (100 nmol/l) and cells cultured for a further 48 h in the same medium. Controls and cells with paclitaxel, but not TNFα, were also cultured in the presence of dexamethasone for a 48 h period. Aromatase activity was measured in intact monolayers after washing cells with phosphate buffered saline. (means±SD, n=3; a, p<0.001 versus controls; b, p<0.001 versus TNFα-stimulated aromatase activity).
(§2) Samples of breast adipose or tumour tissue were obtained from women undergoing reduction mammoplasty or lumpectomy after obtaining their informed consent.
(§3) Fibroblasts were cultured as previously described (2). Briefly, they were cultured in Eagles' modified minimal essential medium containing Hepes buffer (20 mmol/l), 10% foetal calf serum (FCS) and supplements. Cells were routinely passaged 2-3 times after which replicate 25 cm^2 flasks were seeded with fibroblasts and grown to confluency.
(§4) At the end of the treatment period aromatase activity was measured in intact monolayers using [1β-^3H] androstenedione (15-30 Ci/mmol, NEN-Du Pont, Stevenage, Herts, UK) over a 3-20 h period (2, 3). The number of cells was measured by counting cell nuclei using a Coulter counter. Experiments were carried out in triplicate and results shown are representative of 2-3 investigations.

[1] = test system: IL-6 plus IL-6sR stimulated aromatase activity; experiment: IL-6 plus IL-6sR stimulated aromatase activity in breast fibroblasts; type: cell-based, human; settings: for inhibition of stimulation of aromatase activity by IL-6 plus its soluble receptor (in words): breast fibroblasts; for inhibition of IL-6 plus IL-6sR (50 ng+100 ng/ml) stimulated aromatase activity, significance: compound 10 μM, p<0.001
Procedure: (§5) The experimental protocol used was as described in the legend to FIG. 1.
as §3, §4

[2] = test system: TNFα stimulated aromatase activity; experiment: TNFα-stimulated aromatase activity in cultured breast tissue fibroblasts; type: cell-based, human; settings: for inhibition of TNFα-stimulated aromatase activity (in words): stromal fibroblasts from normal or malignant breast tissue; for inhibition of TNFα (20 ng/ml) stimulated aromatase activity, significance: compound 10 μM, p<0.001; for inhibition of TNFα-stimulated aromatase activity: fibroblasts derived from reduction mammoplasty tissue, 24 h pre-treatment, then TNFα plus dexamethasone for 48 h
Procedure: as §1, §2, §3, §4

[3] = test system: PGE2 stimulated aromatase activity; experiment: PGE2 stimulated aromatase activity in breast fibroblasts; type: cell-based, human; settings: for inhibition of stimulation of aromatase activity by PGE2 (in words): breast fibroblasts; for inhibition of PGE2 (10 μM) stimulated aromatase activity, significance: compound 10 μM, p<0.001
Procedure: as §5, §3, §4

TNFα receptors = settings: human macrophages; cited from earlier work
[4] = test system: TNFα stimulated aromatase activity; settings: high concentrations, 10-100 μM; cited from earlier work
Meth A sarcoma = settings: oral administration, mice; cited from earlier work
[5] = test system: MDA-MB-435 breast cancer cells; settings: oral administration, mice; cited from earlier work
B16 melanoma = settings: oral administration, mice; cited from earlier work

Compound: COc1cc2c(cc1OS(N)(=O)=O)CCC1C2CC[C@]2(C)C(=O)CCC12 (stereo partly drawn) [2-MeOEMATE, 2-methoxyoestrone-3-O-sulphamate]
inhibition of basal aromatase activity (in words) (aromatase): inhibited; also recorded: reduced | inhibition of stimulation of aromatase activity by IL-6 plus its soluble receptor (in words) [1]: antagonise; also recorded: inhibited | inhibition of TNFα-stimulated aromatase activity (in words) [2]: inhibited; also recorded: reduced | inhibition of stimulation of aromatase activity by PGE2 (in words) [3]: antagonise; also recorded: inhibited

Compound: C=C1[C@@H](C)[C@H]2[C@H](Cc3ccccc3)NC(=O)[C@]23OC(=O)/C=C/[C@H](O)CCC[C@@H](C)C/C=C/[C@H]3[C@@H]1O [Cytocholasin B]
inhibition of TNFα-stimulated aromatase activity (in words) [2]: without effect | inhibition of TNFα-stimulated aromatase activity (in words) ([2]; listed as cytocholasin B): unable to inhibit

inhibition of basal aromatase activity (in words) (aromatase): inhibited | inhibition of stimulation of aromatase activity by IL-6 plus its soluble receptor (in words) [1]: antagonise; also recorded: inhibited | inhibition of IL-6 plus IL-6sR (50 ng+100 ng/ml) stimulated aromatase activity, significance [1]: significant | inhibition of TNFα (20 ng/ml) stimulated aromatase activity, significance [2]: significant | inhibition of TNFα-stimulated aromatase activity (in words) [2]: significantly inhibited | inhibition of TNFα-stimulated aromatase activity (in words) ([2]; listed as Paclitaxel): inhibited | inhibition of stimulation of aromatase activity by PGE2 (in words) [3]: antagonise; also recorded: inhibited | inhibition of PGE2 (10 μM) stimulated aromatase activity, significance [3]: significant
Compound: CC(=O)O[C@H]1C(=O)[C@@]2(C)[C@H]([C@H](OC(=O)c3ccccc3)[C@]3(O)C[C@H](OC(=O)[C@H](O)[C@@H](NC(=O)c4ccccc4)c4ccccc4)C(C)=C1C3(C)C)[C@]1(OC(C)=O)CO[C@@H]1C[C@@H]2O [paclitaxel]
inhibition of basal aromatase activity (aromatase): 88% | inhibition at 0.1 µM ([2]; Homo sapiens, Fibroblast, compound at 0.1 μM, read-out: inhibition of TNFα stimulation of aromatase activity, dose-response study): 90% | inhibition of TNFα-stimulated aromatase activity [2]: 91% | effect on TNFα receptors (TNFα receptors): rapidly down-regulate

Compound: C[C@]12CC[C@@H]3c4ccc(O)cc4CC[C@H]3[C@@H]1CC[C@@H]2O [oestradiol]
inhibition of TNFα stimulated aromatase activity in adipose stromal cells [4]: can inhibit

Compound: COc1cc2c(c(OC)c1OC)-c1ccc(OC)c(=O)cc1[C@@H](NC(C)=O)CC2 [Colchicine]
inhibition of TNFα-stimulated aromatase activity (in words) [2]: without effect | inhibition of TNFα-stimulated aromatase activity (in words) ([2]; listed as colchicine): unable to inhibit

Compound: TNFα
stimulation of aromatase activity ([2]; in the presence of dexamethasone, reduction mammoplasty fibroblasts): 375%

Compound: COc1cc2c(cc1O)CC[C@@H]1[C@@H]2CC[C@]2(C)[C@@H](O)CC[C@@H]12 [2-meOE2, 2-methoxyoestradiol]
inhibition of basal aromatase activity (aromatase): 46% | inhibition of basal aromatase activity (in words) (aromatase): inhibited | tumour growth (Meth A sarcoma): significantly reduced | tumour growth [5]: significantly reduced | inhibition of IL-6 plus IL-6sR (50 ng+100 ng/ml) stimulated aromatase activity, significance [1]: significant | inhibition of TNFα (20 ng/ml) stimulated aromatase activity, significance [2]: significant | inhibition of TNFα stimulation of aromatase activity, dose-response study ([2]; compound at 0.1 μM): 51% | inhibition of TNFα-stimulated aromatase activity [2]: 56% | inhibition of TNFα-stimulated aromatase activity (in words) [2]: inhibited | inhibition of TNFα-stimulated aromatase activity (in words) ([2]; listed as 2-methoxyoestradiol): significantly inhibited | inhibition of stimulation of aromatase activity by PGE2 (in words) [3]: antagonise; also recorded: inhibited | inhibition of PGE2 (10 μM) stimulated aromatase activity, significance [3]: significant | tumour growth (B16 melanoma): significantly reduced

inhibition of TNFα stimulation of aromatase activity at 5 μM (in words) ([2]; compound at 5 μM): did not significantly reduce | inhibition of TNFα stimulation of aromatase activity at highest concentration tested (in words) ([2]; highest concentration tested): some inhibitory effect | inhibition of TNFα-stimulated aromatase activity (in words) [2]: less effective | inhibition of TNFα-stimulated aromatase activity (in words) ([2]; listed as 16α-hydroxy derivative of 2-meOE2): limited ability to suppress
Compound: COc1cc2c(cc1O)CC[C@@H]1[C@@H]2CC[C@]2(C)[C@@H](O)[C@H](O)C[C@@H]12 [2-meOE3, 2-methoxyoestriol]
